Data taken from patent US5374733A, “Sweetening agent derived from L-aspartic or L-glutamic acid” (priority 1989, dated 1994).
Read-outs that look alike come from different tables or passages of the source. Peptide text beside a SMILES is read from it.

Experiments:
[1] = Stability: accelerated ageing in aqueous solution at pH 3 and 70° C., remaining product by HPLC (half-life); format: physicochemical; details: pH 3, 70° C.
Procedure: The stability of the compounds of the invention, in particular those containing the L-glutamyl residue, is very high and can in certain cases be about three hundred times greater than that of the compounds of the prior art.
The stability of the compounds of the prior art and those of the invention is measured using high performance liquid chromatography to determine the amount of product remaining after accelerated ageing in an acid medium (phosphate buffer at pH 3) and at high temperature (70° C.). Under these experimental conditions, measurement of the half-life (time corresponding to 50% degradation) makes it possible to evaluate the potential stability of the compounds tested in this way. A compound of low stability will have a very short half-life of only a few hours, whereas a very stable compound will have a half-life of several tens of days, as is the case, for example, of compounds (5) and (6) of the invention, which have a half-life of about 60 days (FIG. 1).

[2] = cited from earlier work
[3] = Sweetening potency: taste comparison by a team of eight experienced people with a sucrose reference solution; details: weight basis
Procedure: The sweetening potency of the compounds described in the Examples was evaluated by a team of eight experienced people. This is done by comparing the taste of the compounds, in aqueous solution at variable concentrations, with a 2%, 5 % or 10 % reference solution of sucrose. The sweetening potency of the test compound compared with sucrose then corresponds to the weight ratio between the compound and sucrose for equal sweetening intensity, i.e. when the sweet tastes of the solution of the test compound and the reference solution of sucrose are considered, by a majority of people, to have the same sweetening intensity.
Summary Table 3 below gives, by way of examples, a list of a few compounds obtained by experimental protocols similar to those described above, which those skilled in the art will easily find, together with their relative sweetening potency (SP), evaluated on a weight basis, compared with a 2% aqueous solution of sucrose. When the groups R1, R2 and R3 are different, the configuration of the asymmetric carbon to which they are bonded (carbon marked with an asterisk) is designated according to the conventional rules of stereochemistry using the R/S system: R, S or, when both configurations coexist in the same compound, RS.

[4] = phosphate buffer, pH 3, accelerated ageing, read-out: half-life (converted)
[5] = Table 2, EP-A-0.338.946, sucrose concentration not stated
[6] = prior art and aspartame, sucrose concentration not given
[7] = phosphate buffer, pH 3, accelerated ageing, prior art compounds, read-out: half-life (converted)

CCCC[C@H](C)C(=O)N[C@@H](CCC(=O)O)C(=O)Nc1ccc(C#N)nc1 [(5)]
stability (in words) ([1]; accelerated ageing): high stability | half-life [1, 4]: ~1440 h

N#Cc1ccc(NC(=O)[C@H](CCC(=O)O)NCc2ccccc2)cc1 [C6 H5 CH2/2/4-CN--C6 H4]
SP [2, 5]: 20

CC(CCN[C@@H](CCC(=O)O)C(=O)Nc1ccc(C#N)cc1)c1ccccc1 (some centres unmarked) [C6 H5 CH(CH3)CH2 CH2/2/4-CN--C6 H4]
SP [2, 5]: 400

N#Cc1ccc(NC(=O)[C@H](CCC(=O)O)NCC=Cc2ccccc2)cc1 [C6 H5 CH=CHCH2/2/4-CN--C6 H4]
SP [2, 5]: 2000

CCCC(C)CN[C@@H](CCC(=O)O)C(=O)Nc1ccc(C#N)cc1 (some centres unmarked) [CH3 (CH2)2 CH(CH3)CH2/2/4-CN--C6 H4]
SP [2, 5]: 5000

CCCC=CCN[C@@H](CCC(=O)O)C(=O)Nc1ccc(C#N)cc1 [CH3 (CH2)2 CH=CHCH2/2/4-CN--C6 H4]
SP [2, 5]: 3000

CCCCCN[C@@H](CC(=O)O)C(=O)Nc1ccc(C#N)cc1 [CH3 (CH2)3 CH2/1/4-CN--C6 H4]
SP [2, 5]: 300

CCCCCN[C@@H](CCC(=O)O)C(=O)Nc1ccc(C#N)cc1 [CH3 (CH2)3 CH2/2/4-CN--C6 H4]
SP [2, 5]: 1500

CCCCCCN[C@@H](CC(=O)O)C(=O)Nc1ccc(C#N)cc1 [CH3 (CH2)4 CH2/1/4-CN--C6 H4]
SP [2, 5]: 600

CCCCCCN[C@@H](CCC(=O)O)C(=O)Nc1ccc(C#N)cc1 [CH3 (CH2)4 CH2/2/4-CN--C6 H4]
SP [2, 5]: 5000

CCCCCCCN[C@@H](CC(=O)O)C(=O)Nc1ccc(C#N)cc1 [CH3 (CH2)5 CH2/1/4-CN--C6 H4]
SP [2, 5]: 2000

CCCCCCCN[C@@H](CCC(=O)O)C(=O)Nc1ccc(C#N)nc1 [CH3 (CH2)5 CH2/2/2-CN-pyrid-5-yl]
SP [2, 5]: 4000

CCCCCCCN[C@@H](CCC(=O)O)C(=O)Nc1ccc(C#N)cc1 [CH3 (CH2)5 CH2/2/4-CN--C6 H4]
SP [2, 5]: 7000

CCCCCCCCN[C@@H](CC(=O)O)C(=O)Nc1ccc(C#N)cc1 [CH3 (CH2)6 CH2/1/4-CN--C6 H4]
SP [2, 5]: 400

CCCCCCCCN[C@@H](CCC(=O)O)C(=O)Nc1ccc(C#N)cc1 [CH3 (CH2)6 CH2/2/4-CN--C6 H4]
SP [2, 5]: 2000

CC=CC=CCN[C@@H](CCC(=O)O)C(=O)Nc1ccc(C#N)cc1 [CH3 CH=CHCH=CHCH2/2/4-CN--C6 H4]
SP [2, 5]: 2000

CCCC[C@H](C)C(=O)N[C@@H](CCC(=O)O)C(=O)Nc1ccc(C#N)nc1 [Example 1, N-[(S)-2-methylhexanoyl]-alpha-L-glutamyl-5-aminopyridine-2-carbonitrile]
half-life ([1]; accelerated ageing): about 60 days | stability (in words) ([1]; accelerated ageing): excellent

CCCCC(C)(C)C(=O)N[C@@H](CCC(=O)O)C(=O)Nc1ccc(C#N)nc1 [Example 2, N-(2,2-dimethylhexanoyl)-alpha-L-glutamyl-5-aminopyridine-2-carbonitrile]
stability (in words) ([1]; accelerated ageing): excellent | half-life [1, 4]: ~1680 h

C[C@@H](Oc1ccccc1)C(=O)N[C@@H](CCC(=O)O)C(=O)Nc1ccc(C#N)nc1 [Example 3, N-[(R)-2-phenoxypropanoyl]-alpha-L-glutamyl-5-aminopyridine-2-carbonitrile]
stability (in words) ([1]; accelerated ageing): very high | half-life [1, 4]: ~1440 h

CCCC[C@H](C)C(=O)N[C@@H](CCC(=O)O)C(=O)Nc1ccc(C#N)cc1 [Example 4, N-[(S)-2-methylhexanoyl]-alpha-L-glutamyl-4-aminophenylcarbonitrile]
SP (relative sweetening potency) ([3]; Table 3, compared with a 2% aqueous solution of sucrose): 9000 | sweetening potency ([3]; by comparison with a 2% solution of sucrose): ~9000 times that of sucrose | stability (in words) ([1]; accelerated ageing): excellent | half-life [1, 4]: > 1440 h

O=C(O)C[C@H](NC(=O)C(Cl)(Cl)Cl)C(=O)Nc1cccnc1 [Y=H, X=CCl3 CO]
sweetening potency [2, 6]: 1 times that of sucrose

O=C(O)C[C@H](NC(=O)C(F)(F)F)C(=O)Nc1cccnc1 [Y=H, X=CF3 CO]
sweetening potency [2, 6]: 40 times that of sucrose

COC(=O)[C@H](Cc1ccccc1)NC(=O)[C@@H](N)CC(=O)O [aspartame, reference compound] (H-Asp-Phe-OMe)
stability (in words) ([1]; accelerated ageing): relatively low stability | half-life [1, 4]: 24 h | sweetening potency [2, 6]: 180 times that of sucrose

N#Cc1ccc(NC(=O)[C@H](CCC(=O)O)NCCCC2CCCCC2)cc1 [c-C6 H11 CH2 CH2 CH2/2/4-CN--C6 H4]
SP [2, 5]: 7000

N#Cc1ccc(NC(=O)[C@H](CC(=O)O)NCC2CCCCC2)cc1 [c-C6 H11 CH2/1/4-CN--C6 H4]
SP [2, 5]: 200

CC(N[C@@H](CC(=O)O)C(=O)Nc1ccc(C#N)cc1)C1CCCCC1 (some centres unmarked) [c-C6 H11 CH(CH3)/1/4-CN--C6 H4]
SP [2, 5]: 200

N#Cc1ccc(NC(=O)[C@H](CC(=O)O)NC(=O)C(F)(F)F)cc1 [compound (1)]
half-life [1, 7]: ~15 h | sweetening potency [2, 6]: 3000 times that of sucrose | sweetening potency ([2]; prior art, by comparison with a 2% solution of sucrose): 3000 times that of sucrose

N#Cc1ccc(NC(=O)[C@H](CC(=O)O)NC=O)cc1 [compound (2), reference compound]
half-life [1, 7]: ~20 h | sweetening potency [2, 6]: 40 times that of sucrose

N#Cc1ccc(NC(=O)[C@H](CC(=O)O)NC(=O)c2ccccc2)cc1 [compound (3)]
half-life [1, 7]: ~8 h | sweetening potency (SP) ([2]; JP-A-87-252754, text, by comparison with a 5% solution of sucrose): 720 times that of sucrose | SP ([2]; Table 1, JP-A-87-252754, by comparison with a 5% solution of sucrose): 720 times that of sucrose | sweetening potency [2, 6]: 720 times that of sucrose

N#Cc1ccc(NC(=O)[C@H](CC(=O)O)NCc2ccccc2)cc1 [compound (4)]
half-life [1, 4]: ~48 h | SP [2, 5]: 1000 | sweetening potency [2, 6]: 1000 times that of sucrose
